In patent US12419889B2, “Methods of treating chronic spontaneous urticaria using a bruton's tyrosine kinase inhibitor” (NOVARTIS AG, priority 2019, dated 2025):

Key:
[1] = First-in-human study, blood and urine PK (SAD, MAD q.d., b.i.d.); type: in vivo; conditions: for drug accumulation ratio (Racc): MAD q.d.
Protocol: A first-in-human study was conducted to assess the safety and tolerability, pharmacokinetics (PK) and pharmacodynamics (PD) of single and multiple doses of compound (I) both as once daily (qd) and twice daily (bid) oral administration in healthy volunteers and those with atopic diathesis, to support further clinical development of compound (I) in autoimmune diseases. This study also explored the effect of food intake.
First-in-human study in up to approximately 168 healthy volunteers (HVs), of which 64 (in Parts 2 & 4) had asymptomatic atopic diathesis. • Part 1 was a double-blind (subject and investigator blind, sponsor unblinded), placebo-controlled single ascending dose (SAD) escalation study of 10 cohorts (N=80) • Part 2 was a double-blind (subject and investigator blind, sponsor unblinded), placebo-controlled multiple ascending dose (MAD) (13 doses over 12 days) escalation study employing once daily dosing in 6 cohorts in healthy volunteers with asymptomatic atopic diathesis (N=48) • Part 3 was a single dose open-label crossover food effect study in 12 HVs • Part 4 was a double-blind (subject and investigator blind, sponsor unblinded), placebo-controlled multiple dose (25 doses over 12 days) study employing twice daily dosing in 2 cohorts of healthy volunteers with asymptomatic atopic diathesis (N=16)
The SAD part (Part 1) had ten dose levels and the MAD parts (Parts 2 & 4) consisted of eight dose levels (6 cohorts using single daily dosing in Part 2 and 2 cohorts using twice daily dosing in Part 4). Eight subjects were randomized into each cohort to receive either compound (I) or matching placebo in a 6:2 (active: placebo) ratio in the SAD and MAD parts. Within the SAD part, doses up to approximately 4 times the estimated pharmacologically active dose (PAD) were to be evaluated before the MAD part of the study was started, providing there was no safety signal emerging from the SAD part until then.
In Part 1, subjects were admitted to the study site on Day −2 or −1 for baseline safety assessments and to confirm eligibility. Eligible subjects received a single dose of compound (I) or placebo under fasting conditions on Day 1. They were domiciled from Day −1 to the morning of Day 5 (96 hours post last drug administration).
In Parts 2 and 4, subjects were admitted on Day −2 or −1 for baseline safety assessments and to confirm eligibility. Eligible subjects received the first dose of compound (I) under fasting conditions on Day 1, and continued to take study medication under fasting conditions up to and including Day 12. Subjects were domiciled from Day −2 or −1 until the morning of Day 16, which equals 96 hours after the last dose of compound (I) was received. In Parts 2 and 4, the study medication was given once daily and twice daily respectively (details are found in the schedule of assessments).
Subjects were assigned to one of the following 10 cohorts. In each cohort, 8 subjects were randomized to either compound (I) or matching placebo in an overall 6:2 ratio. The first sub-cohort was randomized in a 1:1 ratio as one subject on compound (I) and one on matching placebo. […]

[2] = First-in-human study Part 3, food effect PK; type: in vivo
From the text: Part 3 was an open-label, randomized, two-way cross-over, single dose study to assess food effects. In Part 3, each subject participated in a 28 day screening period (Day −29 to −2), 2 baseline (Day −1) and 2 treatment periods, each consisting of a single dose administration on Day 1 followed by safety and PK assessment up to Day 5. Treatment period 2 consisted of a follow-up visit and an end of study evaluation on Day 22 and 40, respectively. The two treatment periods were separated by a wash-out period of at least 18 days (+1-1 day).
Subjects were randomized to one of the 2 treatment sequences (Table 9) in the ratio of 1:1. Definition of treatment sequences for Part 3
Pharmacokinetic samples were obtained in blood and evaluated in all subjects at all dose levels. The samples from placebo subjects were not analyzed. The samples for PK assessments from subjects were collected at time points defined in the study. Compound (I) concentrations were determined in blood by a validated LC-MS/MS method.

[3] = target: T1, BTK (Rattus norvegicus, UniProt Q5S255); test: BTK occupancy ex vivo immunoassay in rat tissues after oral dosing
T1 construct: Unoccupied BTK, as well as total BTK relative protein levels were determined in lysates of selected tissues; from tissue; host or cells: rat spleen, blood, lymph nodes, lung
Protocol: The in vivo PD effects of an irreversible BTK inhibitor like compound (I) are determined by the extent and duration of covalent BTK occupancy by the inhibitor. BTK occupancy after treatment with Compound of Formula (I) (also referenced to as Compound (I)) was measured in an ex vivo immunoassay. The fraction of unoccupied BTK protein was assayed after in vitro incubation with a covalent biotinylated BTK probe, since compound (I) and the probe bind to BTK in a mutually exclusive manner. Unoccupied BTK, as well as total BTK relative protein levels were determined in lysates of selected tissues and levels of unoccupied BTK were normalized to total BTK protein levels in the same samples.
From the experimental data it was apparent that a short transient systemic exposure of compound (I) is sufficient to achieve full BTK occupancy in several tissues at low oral doses of 1-3 mg/kg. […] This very low and transient systemic exposure is consistent with the PK/PD model typical of irreversible inhibitors.
The duration of BTK occupancy was determined in rats and mice after single oral dose of compound (I) for spleen, blood, lymph nodes and lung. […] The longer persistence of BTK occupancy in blood has been reported before (Advani et al 2013, J Clin Onc; 31(1):88-94).

T1 sequence (Q5S255 1-660): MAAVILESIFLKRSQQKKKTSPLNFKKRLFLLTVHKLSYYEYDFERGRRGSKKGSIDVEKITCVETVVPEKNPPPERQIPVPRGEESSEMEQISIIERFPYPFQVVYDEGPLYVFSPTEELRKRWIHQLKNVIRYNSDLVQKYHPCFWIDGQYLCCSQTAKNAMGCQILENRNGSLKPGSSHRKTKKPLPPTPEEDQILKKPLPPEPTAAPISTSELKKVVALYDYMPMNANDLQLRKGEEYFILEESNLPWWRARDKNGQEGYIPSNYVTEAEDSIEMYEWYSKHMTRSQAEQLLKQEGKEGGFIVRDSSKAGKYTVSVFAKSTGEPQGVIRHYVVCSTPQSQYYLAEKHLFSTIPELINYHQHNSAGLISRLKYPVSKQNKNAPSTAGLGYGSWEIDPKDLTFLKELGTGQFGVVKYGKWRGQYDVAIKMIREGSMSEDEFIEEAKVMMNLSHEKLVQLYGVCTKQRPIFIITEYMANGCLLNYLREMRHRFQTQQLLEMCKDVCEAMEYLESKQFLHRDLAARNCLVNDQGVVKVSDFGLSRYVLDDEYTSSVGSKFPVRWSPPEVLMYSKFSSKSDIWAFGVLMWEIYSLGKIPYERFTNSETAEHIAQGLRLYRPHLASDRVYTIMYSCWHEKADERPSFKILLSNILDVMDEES

Renal clearance, mean ± SD ([1]; Day 12, 400 mg qd): 16.9 ± 7.13 mL/min
drug accumulation ratio (Racc) ([1]; day 12 vs day 1, high dose): 1.2
drug accumulation ratio (Racc) ([1]; day 12 vs day 1, low dose): 5
MRT, median ([1]; blood, Day 1, 10 mg qd): 0.766 h
MRT, median ([1]; blood, Day 1, 25 mg qd): 1.17 h
AUC0-24, median ([1]; blood, Day 1, 600 mg qd): 932 ng·h/mL
CLss/F, mean ± SD ([1]; blood, Day 12, 10 mg qd): 425 ± 64.8 L/h
CLss/F, median (min-max) ([1]; blood, Day 12, 10 mg qd): 423 (341-529) L/h
AUC0-24, mean ± SD ([1]; blood, Day 12, 25 mg qd): 117 ± 60.9 ng·h/mL
AUClast, mean ± SD ([1]; blood, Day 12, 25 mg qd): 114 ± 59.7 ng·h/mL
CLss/F, mean ± SD ([1]; blood, Day 12, 25 mg qd): 307 ± 253 L/h
CLss/F, median (min-max) ([1]; blood, Day 12, 25 mg qd): 248 (129-809) L/h
AUC0-24, mean ± SD ([1]; blood, Day 12, 50 mg qd): 209 ± 80.2 ng·h/mL
AUC0-24, median (min-max) ([1]; blood, Day 12, 50 mg qd): 181 (127-325) h * ng/mL
CLss/F, mean ± SD ([1]; blood, Day 12, 50 mg qd): 268 ± 92.8 L/h
CLss/F, median (min-max) ([1]; blood, Day 12, 50 mg qd): 276 (154-395) L/h
CLss/F, mean ± SD ([1]; blood, Day 12, 100 mg qd): 198 ± 88.7 L/h
CLss/F, median (min-max) ([1]; blood, Day 12, 100 mg qd): 166 (129-298) L/h
CLss/F, mean ± SD ([1]; blood, Day 12, 400 mg qd): 366 ± 150 L/h
CLss/F, median (min-max) ([1]; blood, Day 12, 400 mg qd): 351 (177-591) L/h
CLss/F, mean ± SD ([1]; blood, Day 12, 600 mg qd): 521 ± 131 L/h
CLss/F, median (min-max) ([1]; blood, Day 12, 600 mg qd): 569 (345-661) L/h
Cmax, median (min-max) ([1]; blood, Day 12, 600 mg qd): 475 (377-985) ng/mL
increase of Cmax from 100 mg to 200 mg b.i.d. ([1]; day 12): 1.33 fold
oral blood clearance CL/F, estimate across all cohorts ([1]; single dose, all SAD cohorts): about 383 L/h
Tmax ([2]; human, whole blood, single oral dose 60 mg, fasted): 1 h
AUC0-24, GeoMean ([2]; single dose 60 mg, FAST): 182.08 ng·h/mL
AUClast, GeoMean ([2]; single dose 60 mg, FAST): 177.17 ng·h/mL
Tlast, GeoMean ([2]; single dose 60 mg, FAST): 9.66 h
Tlast, Mean ([2]; single dose 60 mg, FAST): 10.50 h
Tmax, Mean ([2]; single dose 60 mg, FAST): 1.02 h
Tlast, GeoMean ([2]; single dose 60 mg, FED): 9.25 h
Tlast, Mean ([2]; single dose 60 mg, FED): 9.50 h
higher AUC0-24 fed vs fasted ([2]; single oral dose 60 mg): 1.4 fold
lower Cmax fed vs fasted ([2]; single oral dose 60 mg): 1.25 fold
spleen BTK occupancy ([3]; female rats, single oral dose 3 mg/kg): full
BTK occupancy half-life in spleen ([3]; rat spleen, single oral dose, estimated): approximately 5 hours
BTK occupancy half-life in blood ([3]; rats, single oral dose): approximately 87 hours
Compound: C=CC(=O)N(C)CCOc1c(N)ncnc1-c1cc(F)cc(NC(=O)c2ccc(C3CC3)cc2F)c1C [Compound (I), N-(3-(6-Amino-5-(2-(N-methylacrylamido)ethoxy)pyrimidin-4-yl)-5-fluoro-2-methylphenyl)-4-cyclopropyl-2-fluorobenzamide]
